Assay [1] concerns Rattus norvegicus. Kind of assay: Compound was tested for its effect on diastolic blood pressure in anaesthetized rats after i.v. administration at a dose of 4.12 umol/kg. Type of assay: functional, Artery.
In assay [2] the test system is Rattus norvegicus. Kind of assay: Compound was tested for its effect on systolic blood pressure in anaesthetized rats after i.v. administration at a dose of 4.12 umol/kg. The assay is classed as functional, Artery.
The test system of assay [3] is Rattus norvegicus. Kind of assay: Compound was tested for its effect on heart rate in anaesthetized rats after i.v. administration at a dose of 4.12 umol/kg. Type of assay: functional.
Assay [4] has as its system Rattus norvegicus. Put plainly: Compound was tested for its effect on respiratory frequency in anaesthetized rats after i.v. administration at a dose of 4.12 umol/kg. The assay is classed as functional.
The species entered for assay [5] is Rattus norvegicus. Kind of assay: Compound was tested for cardiac ionotropism and expressed as dP/dtmax. Set-up: concentration or dose not given beside the values. The assay is classed as functional.
Assay [6] deals with Rattus norvegicus. Kind of assay: Compound was tested for its effect on heart rate in anaesthetized rats after i.v. administration at a dose of 4.12 umol/kg. The assay is classed as functional.

For `COc1ccc(C(=O)NCCCC/N=C(\N)NCC=C(C)C)cc1.CS(=O)(=O)O`, the Activity is -35 delta mmHg in the assay with Rattus norvegicus [1] and -26 delta mmHg in the assay with Rattus norvegicus [2]. In addition, in the assay with Rattus norvegicus [3], the HR is given as -16 delta beats min-1. Also, the RF in the assay with Rattus norvegicus [4] was found to be 17 delta beats min-1. The dP/dt max in the assay filed under Rattus norvegicus [5] was determined as 3249 mmHg s-1.
In the case of `COc1ccc(CCC(=O)NCCCC/N=C(\N)NCC=C(C)C)cc1OC.CS(=O)(=O)O`, the Activity in the assay with Rattus norvegicus [1] is -14 delta mmHg; with Rattus norvegicus [2] it was -15 delta mmHg. The compound also returned an HR in the assay with Rattus norvegicus [3] of -12 delta beats min-1. In addition, the RF with Rattus norvegicus [4] is recorded as 6 delta beats min-1. The same compound gave a dP/dt max in the assay filed under Rattus norvegicus [5] of 2252 mmHg s-1.
Regarding `COc1ccc(/C=C/C(=O)NCCCCCC/N=C(\N)NCC=C(C)C)cc1OC.CS(=O)(=O)O`, the Activity is recorded as -8 delta mmHg with Rattus norvegicus [1] and -9 delta mmHg in the assay on Rattus norvegicus [2]. Also, in the assay on Rattus norvegicus [6], the HR stood at 4 delta beats min-1. The RF in the assay on Rattus norvegicus [4] amounted to 4 delta beats min-1. The compound further registered a dP/dt max in the assay listed under Rattus norvegicus [5] of 648 mmHg s-1.
Consider `CC(C)=CC/N=C(/N)NCCCCNC(=O)/C=C/c1ccccc1.CS(=O)(=O)O`, for which the Activity was -59 delta mmHg in the assay with Rattus norvegicus [1] and -47 delta mmHg in the assay on Rattus norvegicus [2]. In the assay with Rattus norvegicus [3], the HR stood at 19 delta beats min-1. Further, the RF in the assay on Rattus norvegicus [4] is 12 delta beats min-1. This compound also yielded a dP/dt max in the assay listed under Rattus norvegicus [5] of 6070 mmHg s-1.
Regarding `COc1ccc(C#CC(=O)NCCCC/N=C(\N)NCC=C(C)C)cc1OC.CS(=O)(=O)O`, the Activity is listed as -24 delta mmHg in the assay on Rattus norvegicus [1] and -14 delta mmHg in the assay on Rattus norvegicus [2]. In the assay with Rattus norvegicus [3], the HR worked out at 14 delta beats min-1. The same compound displayed an RF with Rattus norvegicus [4] of 14 delta beats min-1. For the same compound, in the assay listed under Rattus norvegicus [5], the dP/dt max is recorded as 3424 mmHg s-1.
For `COc1ccc([C@H]2C[C@@H]2C(=O)NCCCC/N=C(\N)NCC=C(C)C)cc1OC.CS(=O)(=O)O`, the Activity with Rattus norvegicus [1] was -26 delta mmHg; in the assay on Rattus norvegicus [2] it was -30 delta mmHg. Besides, in the assay with Rattus norvegicus [3], the HR was -19 delta beats min-1. In the assay with Rattus norvegicus [4], the RF amounted to 19 delta beats min-1. The compound also displayed a dP/dt max in the assay listed under Rattus norvegicus [5] of 2781 mmHg s-1.
Take `COc1ccc(/C=C/C(=O)NCCCCC/N=C(\N)NCC=C(C)C)cc1OC.CS(=O)(=O)O`: the Activity in the assay with Rattus norvegicus [1] is -40 delta mmHg; in the assay with Rattus norvegicus [2], -34 delta mmHg. For the same compound, the HR in the assay with Rattus norvegicus [6] is reported as 8 delta beats min-1. For the same compound, the RF in the assay with Rattus norvegicus [4] is -10 delta beats min-1. The dP/dt max in the assay filed under Rattus norvegicus [5] is 5028 mmHg s-1.
Take `COc1ccc(/C=C/C(=O)NCCCC/N=C(\N)NCC=C(C)C)cc1OC.CS(=O)(=O)O`: the Activity was -18 delta mmHg in the assay on Rattus norvegicus [1] and -21 delta mmHg in the assay with Rattus norvegicus [2]. For the same compound, the HR with Rattus norvegicus [3] is on record as 22 delta beats min-1. The compound also gave an RF with Rattus norvegicus [4] of 23 delta beats min-1. Further, the dP/dt max in the assay listed under Rattus norvegicus [5] worked out at 2996 mmHg s-1.
In the case of `COc1ccc(CC(=O)NCCCC/N=C(\N)NCC=C(C)C)cc1OC.CS(=O)(=O)O`, the figures for the Activity in the assay on Rattus norvegicus [1] and with Rattus norvegicus [2] were -31 delta mmHg and -22 delta mmHg, respectively. Also, in the assay on Rattus norvegicus [3], the HR is on record as -24 delta beats min-1. In the assay on Rattus norvegicus [4], this compound gave an RF of 16 delta beats min-1. In the assay filed under Rattus norvegicus [5], this compound showed a dP/dt max of 3088 mmHg s-1.

Source of the values: ChEMBL document CHEMBL1128996, “Synthesis and preliminary pharmacological evaluation of analogues of caracasanamide, a hypotensive natural product” (1996).
